Source: patent US20210196714A1, “COMPOSITIONS AND METHODS FOR TREATING DISORDERS CHARACTERIZED WITH ABERRANT RAS/MAPK SIGNALING” (Duke University, priority 2018, published 2021)

Tested on: rap1- and kdm6a-depleted zebrafish
Assay: CE defects caused by loss of rap1 and kdm6a
Format: in vivo
Experimental: FIG. 4: Compound 8 ameliorates the CE and jaw defects caused by loss of rap/and kdm6a. (a) gRNA targeting both zebrafish rap1a and rap1b were injected into embryos at the 1-cell stage with Cas9 protein. Larvae were incubated with compound 8 (100 nM) at the 8-cell stage and scored for micrognathia. 5 dpf larvae were stained with Alcian blue to assess the layout of the jaw cartilage. In comparison to control embryos (top), rap1-CRISPR embryos have smaller jaws. […] (b) Quantitative measurement of the distance between MK and CH cartilages. (c) Larvae were scored for CE (n>30 for each concentration). (d) 5 dpf embryos were stained with Alcian blue to assess the layout of jaw cartilage. […] (e) Quantitative measurement of the distance between MK and CH cartilages. *p<0.05; ***p<0.001. […]
For convergence and extension (CE) phenotyping, embryos were scored as described (see, Leitch, C. C. et al. Nat Genet 40, 443-8 (2008)) at the 8-10 somite stage, and images were captured using an AZ100 microscope and NIS Elements software (Nikon). […] The distance between Meckel's (MK) and ceratohyal (CH) cartilages was measured on ventral bright field images with Image J (NIH). […] Fluorescence signal on embryo heads was imaged with the Nikon AZ100 microscope and DS-Qi1MC digital camera using […] Z-stacks to generate extended depth of focus images. Cell numbers were quantified using the ImageJ ICTN plugin (NIH). […]

For `CC(C)c1nc(-c2cccc(NS(=O)(=O)c3c(F)cccc3F)c2F)c(-c2ccnc(N)n2)s1` [Compound 8, desmethyl-Dabrafenib], the CE defects was “ameliorates”.
